Source: PubChem BioAssay AID1963985 (Molecular Pharmacology Branch, DTP, NCI, 2024)
pIC50: −log10 of the molar value.

Tested on: 252836-082-R-J2-PDC tumor spheroids, viability
Assay: Anticancer human tumor 252836-082-R-J2-PDC patient-derived head and neck squamous cell carcinoma cell line growth inhibition [PI3K]
Details: spheroids with HUVEC and MSC; for pIC50: curve of first compound; for viability, T/C: stronger effect = lower value
Summary of the method: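 Combination activity was assessed by viability in multicellular tumor spheroids carrying HUVEC and MSC components. Agents were tested with PI3K inhibitors from a Cmax-based top dose (or 10 microM) downward in half-log increments.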

[1] = second compound 0.0316 µM, first compound 0.0316 µM
[2] = second compound 0.0316 µM, first compound 0.1 µM
[3] = second compound 0.0316 µM, first compound 0.316 µM
[4] = second compound 0.0316 µM, first compound 1 µM
[5] = second compound 0.1 µM, first compound 0.0316 µM
[6] = second compound 0.1 µM, first compound 0.1 µM
[7] = second compound 0.1 µM, first compound 0.316 µM
[8] = second compound 0.1 µM, first compound 1 µM
[9] = second compound 0.316 µM, first compound 0.0316 µM
[10] = second compound 0.316 µM, first compound 0.1 µM
[11] = second compound 0.316 µM, first compound 0.316 µM
[12] = second compound 0.316 µM, first compound 1 µM
[13] = second compound 1 µM, first compound 0.0316 µM
[14] = second compound 1 µM, first compound 0.1 µM
[15] = second compound 1 µM, first compound 0.316 µM
[16] = second compound 1 µM, first compound 1 µM
[17] = second compound 3.16 µM, first compound 0.0316 µM
[18] = second compound 3.16 µM, first compound 0.1 µM
[19] = second compound 3.16 µM, first compound 0.316 µM
[20] = second compound 3.16 µM, first compound 1 µM
[21] = second compound 10 µM, first compound 0.0316 µM
[22] = second compound 10 µM, first compound 0.1 µM
[23] = second compound 10 µM, first compound 0.316 µM
[24] = second compound 10 µM, first compound 1 µM
[25] = second compound 0.0316 µM, first compound 3.16 µM
[26] = second compound 0.0316 µM, first compound 10 µM
[27] = second compound 0.1 µM, first compound 3.16 µM
[28] = second compound 0.1 µM, first compound 10 µM
[29] = second compound 0.316 µM, first compound 3.16 µM
[30] = second compound 0.316 µM, first compound 10 µM
[31] = second compound 1 µM, first compound 3.16 µM
[32] = second compound 1 µM, first compound 10 µM
[33] = second compound 3.16 µM, first compound 3.16 µM
[34] = second compound 3.16 µM, first compound 10 µM
[35] = second compound 10 µM, first compound 3.16 µM
[36] = second compound 10 µM, first compound 10 µM
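Further: spheroids exposed to agents for seven days before readout.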
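Wherever viability, T/C is given: percent of vehicle DMSO control viability so 100% = untreated growth.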

## CCN1CCN(Cc2ccc(Nc3ncc(F)c(-c4cc(F)c5nc(C)n(C(C)C)c5c4)n3)nc2)CC1 + CC(Nc1ncnc2nc[nH]c12)c1cc2cccc(Cl)c2c(=O)n1-c1ccccc1
Second compound 0.0316 µM
  pIC50: < 6.00
Second compound 0.1 µM
  pIC50: < 6.00
Second compound 0.316 µM
  pIC50: < 6.00
Second compound 1 µM
  pIC50: < 6.00
Second compound 3.16 µM
  pIC50: < 6.00
Second compound 10 µM
  pIC50: < 6.00
Second compound 0.0316 µM, first compound 0.00316 µM
  viability, T/C: 98.7%
Second compound 0.0316 µM, first compound 0.01 µM
  viability, T/C: 94.4%
[1]
  viability, T/C: 96.9%
[2]
  viability, T/C: 99%
[3]
  viability, T/C: 89.8%
[4]
  viability, T/C: 84.6%
Second compound 0.1 µM, first compound 0.00316 µM
  viability, T/C: 99.2%
Second compound 0.1 µM, first compound 0.01 µM
  viability, T/C: 93.1%
[5]
  viability, T/C: 103%
[6]
  viability, T/C: 108%
[7]
  viability, T/C: 95%
[8]
  viability, T/C: 99.6%
Second compound 0.316 µM, first compound 0.00316 µM
  viability, T/C: 103%
Second compound 0.316 µM, first compound 0.01 µM
  viability, T/C: 94.3%
[9]
  viability, T/C: 95.7%
[10]
  viability, T/C: 96.3%
[11]
  viability, T/C: 96.6%
[12]
  viability, T/C: 96.2%
Second compound 1 µM, first compound 0.00316 µM
  viability, T/C: 92.8%
Second compound 1 µM, first compound 0.01 µM
  viability, T/C: 93.6%
[13]
  viability, T/C: 91.9%
[14]
  viability, T/C: 90.6%
[15]
  viability, T/C: 89.2%
[16]
  viability, T/C: 91.6%
Second compound 3.16 µM, first compound 0.00316 µM
  viability, T/C: 80%
Second compound 3.16 µM, first compound 0.01 µM
  viability, T/C: 69.8%
[17]
  viability, T/C: 75.4%
[18]
  viability, T/C: 79%
[19]
  viability, T/C: 78.9%
[20]
  viability, T/C: 75%
Second compound 10 µM, first compound 0.00316 µM
  viability, T/C: 56%
Second compound 10 µM, first compound 0.01 µM
  viability, T/C: 62.8%
[21]
  viability, T/C: 65%
[22]
  viability, T/C: 67.4%
[23]
  viability, T/C: 69.8%
[24]
  viability, T/C: 53.6%

## Cn1ncc(Cl)c1-c1cc(C(=O)NC(CN)Cc2cccc(F)c2)sc1Cl (stereo unspecified) + CC(Nc1ncnc2nc[nH]c12)c1cc2cccc(Cl)c2c(=O)n1-c1ccccc1
Second compound 0.0316 µM
  pIC50: 6.19
Second compound 0.1 µM
  pIC50: 6.15
Second compound 0.316 µM
  pIC50: 6.30
Second compound 1 µM
  pIC50: 6.21
Second compound 3.16 µM
  pIC50: 6.27
Second compound 10 µM
  pIC50: 6.56
[1]
  viability, T/C: 90.3%
[2]
  viability, T/C: 65%
[3]
  viability, T/C: 63.8%
[4]
  viability, T/C: 44.5%
[25]
  viability, T/C: 30%
[26]
  viability, T/C: 12.1%
[5]
  viability, T/C: 100%
[6]
  viability, T/C: 81%
[7]
  viability, T/C: 59.7%
[8]
  viability, T/C: 43.9%
[27]
  viability, T/C: 33%
[28]
  viability, T/C: 12.2%
[9]
  viability, T/C: 80.9%
[10]
  viability, T/C: 70.3%
[11]
  viability, T/C: 56.2%
[12]
  viability, T/C: 38.8%
[29]
  viability, T/C: 28.2%
[30]
  viability, T/C: 12%
[13]
  viability, T/C: 84%
[14]
  viability, T/C: 80.4%
[15]
  viability, T/C: 58.3%
[16]
  viability, T/C: 40.7%
[31]
  viability, T/C: 29.5%
[32]
  viability, T/C: 13%
[17]
  viability, T/C: 76.5%
[18]
  viability, T/C: 71.8%
[19]
  viability, T/C: 53.8%
[20]
  viability, T/C: 43.3%
[33]
  viability, T/C: 27.8%
[34]
  viability, T/C: 15.5%
[21]
  viability, T/C: 57%
[22]
  viability, T/C: 60.9%
[23]
  viability, T/C: 49.3%
[24]
  viability, T/C: 30.7%
[35]
  viability, T/C: 27%
[36]
  viability, T/C: 14.1%

## Cn1nccc1Nc1nccc(-c2ccn(C(CO)c3ccc(Cl)c(F)c3)c(=O)c2)n1 (stereo unspecified) + CC(Nc1ncnc2nc[nH]c12)c1cc2cccc(Cl)c2c(=O)n1-c1ccccc1
Second compound 0.0316 µM
  pIC50: < 5.00
Second compound 0.1 µM
  pIC50: < 5.00
Second compound 0.316 µM
  pIC50: < 5.00
Second compound 1 µM
  pIC50: < 5.00
Second compound 3.16 µM
  pIC50: < 5.00
Second compound 10 µM
  pIC50: 5.18
[1]
  viability, T/C: 83.3%
[2]
  viability, T/C: 99.5%
[3]
  viability, T/C: 91.9%
[4]
  viability, T/C: 99.6%
[25]
  viability, T/C: 93.3%
[26]
  viability, T/C: 66.2%
[5]
  viability, T/C: 100%
[6]
  viability, T/C: 94.8%
[7]
  viability, T/C: 91.3%
[8]
  viability, T/C: 95.9%
[27]
  viability, T/C: 95.9%
[28]
  viability, T/C: 67.2%
[9]
  viability, T/C: 97.2%
[10]
  viability, T/C: 94.5%
[11]
  viability, T/C: 93.7%
[12]
  viability, T/C: 81.1%
[29]
  viability, T/C: 91.9%
[30]
  viability, T/C: 76%
[13]
  viability, T/C: 75.4%
[14]
  viability, T/C: 82.3%
[15]
  viability, T/C: 91.3%
[16]
  viability, T/C: 92.6%
[31]
  viability, T/C: 81.5%
[32]
  viability, T/C: 56.5%
[17]
  viability, T/C: 72.4%
[18]
  viability, T/C: 86.2%
[19]
  viability, T/C: 77.5%
[20]
  viability, T/C: 80.5%
[33]
  viability, T/C: 80.9%
[34]
  viability, T/C: 52.9%
[21]
  viability, T/C: 62%
[22]
  viability, T/C: 64.8%
[23]
  viability, T/C: 78.9%
[24]
  viability, T/C: 73.4%
[35]
  viability, T/C: 62.4%
[36]
  viability, T/C: 41.8%
